From patent US12559506B2, “Indazole based compounds and associated methods of use” (Arvinas Operations, Inc., priority 2021, dated 2026)
Read-outs that look alike come from different tables or passages of the source.

Assays:
wildtype LRRK2 = biological target: T1, wildtype LRRK2 (Homo sapiens, UniProt Q5S007); experiment: LRRK2 degradation assay, HiBit-tagged wildtype LRRK2 expressed from plasmid in HEK293 cells (Nano-Glo Dual-Luciferase); type: cell-based; conditions: 24 hours; for DC50: read-out: *WT DC50; for Dmax: read-out: **WT Dmax (%)
T1 construct: expressed in transfected cells; host or cells: HEK293 (ATCC CRL-1573), transient transfection, mammalian expression vector with ubiquitin promoter
Summary of the method: (§1)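 HEK293 cells co-transfected with C-terminal HiBiT-tagged LRRK2 (WT or G2019S, ubiquitin promoter) and firefly luciferase, then dosed 24 h at 37 °C. HiBiT/firefly ratio normalized to DMSO median; DC50 and Dmax from per-plate curve fits, six replicates over two days.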

G2019S LRRK2 = biological target: T2, G2019S LRRK2 (Homo sapiens, UniProt Q5S007, G2019S); experiment: LRRK2 degradation assay, HiBit-tagged G2019S LRRK2 expressed from plasmid in HEK293 cells (Nano-Glo Dual-Luciferase); type: cell-based; conditions: 24 hours
T2 construct: expressed in transfected cells; host or cells: HEK293 (ATCC CRL-1573), transient transfection, mammalian expression vector with ubiquitin promoter
Summary of the method: as §1

[1] = HiBit-tagged wildtype LRRK2, HEK293 cells
[2] = HiBit-tagged G2019S LRRK2, HEK293 cells
[3] = HiBit-tagged wildtype LRRK2 in HEK293 cells
[4] = HiBit-tagged G2019S LRRK2 in HEK293 cells

T1 sequence (Q5S007 whole entry): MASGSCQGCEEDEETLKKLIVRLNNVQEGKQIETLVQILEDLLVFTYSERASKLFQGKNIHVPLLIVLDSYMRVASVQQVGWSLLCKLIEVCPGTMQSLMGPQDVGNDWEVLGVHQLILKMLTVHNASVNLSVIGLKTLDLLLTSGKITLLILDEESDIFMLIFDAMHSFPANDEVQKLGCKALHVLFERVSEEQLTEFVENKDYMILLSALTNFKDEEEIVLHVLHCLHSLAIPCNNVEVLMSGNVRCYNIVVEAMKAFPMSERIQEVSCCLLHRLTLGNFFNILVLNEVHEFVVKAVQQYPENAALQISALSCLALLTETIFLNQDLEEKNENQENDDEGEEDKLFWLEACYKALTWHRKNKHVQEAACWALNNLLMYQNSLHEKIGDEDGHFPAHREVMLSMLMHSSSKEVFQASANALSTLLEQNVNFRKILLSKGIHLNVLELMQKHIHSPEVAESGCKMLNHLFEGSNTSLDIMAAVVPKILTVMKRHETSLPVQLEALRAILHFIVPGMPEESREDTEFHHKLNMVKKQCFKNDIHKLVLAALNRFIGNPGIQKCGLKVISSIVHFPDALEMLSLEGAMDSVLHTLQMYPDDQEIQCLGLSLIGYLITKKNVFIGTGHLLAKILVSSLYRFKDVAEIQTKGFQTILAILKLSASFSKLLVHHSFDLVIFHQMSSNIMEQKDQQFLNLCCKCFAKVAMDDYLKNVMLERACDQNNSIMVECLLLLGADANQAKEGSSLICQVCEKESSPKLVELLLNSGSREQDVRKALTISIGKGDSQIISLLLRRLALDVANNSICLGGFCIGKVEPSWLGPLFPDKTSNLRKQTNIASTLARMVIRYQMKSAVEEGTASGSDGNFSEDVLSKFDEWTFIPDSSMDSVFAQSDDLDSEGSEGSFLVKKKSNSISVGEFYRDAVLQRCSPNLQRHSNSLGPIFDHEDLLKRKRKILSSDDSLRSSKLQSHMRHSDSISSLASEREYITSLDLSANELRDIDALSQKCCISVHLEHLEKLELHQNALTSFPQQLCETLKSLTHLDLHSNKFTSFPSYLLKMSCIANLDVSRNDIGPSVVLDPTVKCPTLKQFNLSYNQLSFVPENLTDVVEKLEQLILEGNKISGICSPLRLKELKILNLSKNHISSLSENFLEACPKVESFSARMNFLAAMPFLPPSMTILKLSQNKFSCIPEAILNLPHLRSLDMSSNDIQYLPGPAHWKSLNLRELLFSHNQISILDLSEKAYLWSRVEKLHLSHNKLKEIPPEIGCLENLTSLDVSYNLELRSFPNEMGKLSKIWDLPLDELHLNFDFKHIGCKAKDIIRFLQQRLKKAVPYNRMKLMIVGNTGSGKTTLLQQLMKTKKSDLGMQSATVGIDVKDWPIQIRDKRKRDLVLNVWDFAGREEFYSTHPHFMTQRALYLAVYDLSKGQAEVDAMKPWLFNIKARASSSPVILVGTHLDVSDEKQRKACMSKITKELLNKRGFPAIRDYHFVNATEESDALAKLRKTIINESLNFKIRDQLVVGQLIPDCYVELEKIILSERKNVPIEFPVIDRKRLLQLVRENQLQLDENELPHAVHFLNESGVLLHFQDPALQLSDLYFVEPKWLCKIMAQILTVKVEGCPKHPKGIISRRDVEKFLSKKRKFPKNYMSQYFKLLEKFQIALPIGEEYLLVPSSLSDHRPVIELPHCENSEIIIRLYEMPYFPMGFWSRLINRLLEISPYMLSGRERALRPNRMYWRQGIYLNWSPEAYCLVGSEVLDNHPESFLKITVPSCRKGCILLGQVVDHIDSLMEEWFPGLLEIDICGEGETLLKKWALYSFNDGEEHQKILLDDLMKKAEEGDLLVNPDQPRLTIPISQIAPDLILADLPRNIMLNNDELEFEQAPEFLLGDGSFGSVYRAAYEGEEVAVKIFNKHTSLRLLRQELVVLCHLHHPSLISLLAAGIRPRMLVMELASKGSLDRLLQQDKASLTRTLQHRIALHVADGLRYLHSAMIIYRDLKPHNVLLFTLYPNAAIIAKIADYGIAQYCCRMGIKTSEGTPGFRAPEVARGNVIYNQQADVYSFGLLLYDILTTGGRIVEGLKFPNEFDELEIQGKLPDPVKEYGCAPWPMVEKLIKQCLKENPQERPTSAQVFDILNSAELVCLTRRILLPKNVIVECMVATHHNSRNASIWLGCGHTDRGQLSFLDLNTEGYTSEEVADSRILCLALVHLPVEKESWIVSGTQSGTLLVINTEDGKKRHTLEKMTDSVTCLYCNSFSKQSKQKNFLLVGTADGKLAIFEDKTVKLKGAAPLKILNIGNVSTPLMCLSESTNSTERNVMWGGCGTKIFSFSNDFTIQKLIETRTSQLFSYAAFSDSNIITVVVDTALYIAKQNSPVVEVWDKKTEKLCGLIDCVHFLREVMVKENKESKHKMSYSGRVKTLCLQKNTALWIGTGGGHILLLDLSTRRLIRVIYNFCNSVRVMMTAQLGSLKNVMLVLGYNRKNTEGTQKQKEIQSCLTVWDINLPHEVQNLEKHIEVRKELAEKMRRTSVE
T2 sequence (Q5S007 whole entry G2019S): as the sequence (Q5S007 whole entry) above, with G2019S counted along it

Compound | DC50 (wildtype LRRK2; [1]) | DC50 (G2019S LRRK2; [2]) | Dmax (wildtype LRRK2; [3]) | DC50 (wildtype LRRK2; [3]) | DC50 (G2019S LRRK2; [4]) | Dmax (G2019S LRRK2; [4]) | Dmax (wildtype LRRK2; [1]) | Dmax (G2019S LRRK2; [2])
CC1(Oc2ccc3[nH]nc(-c4cc(N5CCN(Cc6cccc(CN7CCN(c8ccc9c(c8)C(=O)N(C8CCC(=O)NC8=O)C9=O)CC7)c6)CC5)ncn4)c3c2)CC1 (centres unmarked) [Compound 170, 2-(2,6-dioxo-3-piperidyl)-5-[4-[[3-[[4-[6-[5-(1-methylcyclopropoxy)-2H-indazol-3-yl]pyrimidin-4-yl]piperazin-1-yl]methyl]phenyl]methyl]piperazin-1-yl]isoindoline-1,3-dione] | ≥ 100 nM | ≥ 100 nM | – | – | – | – | – | –
C[C@H]1CN(c2cc(-c3n[nH]c4ccc(OC5CC5)cc34)ncn2)CCN1CC1CCN(CC2CCN(c3ccc4c(c3)C(=O)N(C3CCC(=O)NC3=O)C4=O)CC2)CC1 (stereo partly drawn) [Compound 72, 5-{4-[(4-{[(2S)-4-[6-(5-cyclopropoxy-1H-indazol-3-yl)pyrimidin-4-yl]-2-methylpiperazin-1-yl]methyl}piperidin-1-yl)methyl]piperidin-1-yl}-2-(2,6-dioxopiperidin-3-yl)-2,3-dihydro-1H-isoindole-1,3-dione] | – | – | 50 to 70% | 10 to 50 nM | 10 to 50 nM | 50 to 70% | – | –
CC1(Oc2ccc3[nH]nc(-c4cc(N5CCC(CN6CCN(C(=O)C7CCN(c8ccc9c(c8)C(=O)N(C8CCC(=O)NC8=O)C9=O)CC7)CC6)CC5)ncn4)c3c2)CC1 (centres unmarked) [Compound 94, 2-(2,6-dioxopiperidin-3-yl)-5-(4-{4-[(1-{6-[5-(1-methylcyclopropoxy)-1H-indazol-3-yl]pyrimidin-4-yl}piperidin-4-yl)methyl]piperazine-1-carbonyl}piperidin-1-yl)-2,3-dihydro-1H-isoindole-1,3-dione] | – | – | 50 to 70% | < 10 nM | < 10 nM | 50 to 70% | – | –
CC1(Oc2ccc3[nH]nc(-c4cc(N5CCC(CN6CC7(CCN7CC7CCN(c8ccc9c(c8)C(=O)N(C8CCC(=O)NC8=O)C9=O)CC7)C6)CC5)ncn4)c3c2)CC1 (centres unmarked) [Compound 176, 2-(2,6-dioxo-3-piperidyl)-5-[4-[[6-[[1-[6-[5-(1-methylcyclopropoxy)-1H-indazol-3-yl]pyrimidin-4-yl]-4-piperidyl]methyl]-1,6-diazaspiro[3.3]heptan-1-yl]methyl]-1-piperidyl]isoindoline-1,3-dione] | < 10 nM | < 10 nM | – | – | – | – | 50 to 70% | < 50%
CC1(Oc2ccc3[nH]nc(-c4cc(N5CCC(CN6CCN(CC7CN(c8ccc9c(c8)C(=O)N(C8CCC(=O)NC8=O)C9=O)C7)CC6)CC5)ncn4)c3c2)CC1 (centres unmarked) [Compound 133, 2-(2,6-dioxo-3-piperidyl)-5-[3-[[4-[[1-[6-[5-(1-methylcyclopropoxy)-1H-indazol-3-yl]pyrimidin-4-yl]-4-piperidyl]methyl]piperazin-1-yl]methyl]azetidin-1-yl]isoindoline-1,3-dione] | – | – | 50 to 70% | < 10 nM | < 10 nM | 50 to 70% | – | –
CC1(Oc2ccc3[nH]nc(-c4cc(N5CCC(O[C@H]6CCN(CC7CCN(c8ccc9c(c8)C(=O)N(C8CCC(=O)NC8=O)C9=O)CC7)C6)CC5)ncn4)c3c2)CC1 (stereo partly drawn) [Compound 117, 2-(2,6-dioxopiperidin-3-yl)-5-(4-{[(3S)-3-[(1-{6-[5-(1-methylcyclopropoxy)-1H-indazol-3-yl]pyrimidin-4-yl}piperidin-4-yl)oxy]pyrrolidin-1-yl]methyl}piperidin-1-yl)-2,3-dihydro-1H-isoindole-1,3-dione] | – | – | < 50% | < 10 nM | < 10 nM | < 50% | – | –
CC1(Oc2ccc3[nH]nc(-c4cc(N5CCN(C[C@H]6CC[C@H](CN7CCN(c8ccc9c(c8)C(=O)N(C8CCC(=O)NC8=O)C9=O)CC7)CC6)CC5)ncn4)c3c2)CC1 (some centres unmarked) [Compound 101, 2-(2,6-dioxo-3-piperidyl)-5-[4-[[4-[[4-[6-[5-(1-methylcyclopropoxy)-1H-indazol-3-yl]pyrimidin-4-yl]piperazin-1-yl]methyl]cyclohexyl]methyl]piperazin-1-yl]isoindoline-1,3-dione] | – | – | 50 to 70% | 10 to 50 nM | < 10 nM | < 50% | – | –
CC1(Oc2ccc3n[nH]c(-c4cc(N5CCN(CC6(F)CCN(C(=O)C7CCN(c8ccc9c(c8)C(=O)N(C8CCC(=O)NC8=O)C9=O)CC7)CC6)CC5)ncn4)c3c2)CC1 (centres unmarked) [Compound 96, 2-(2,6-dioxo-3-piperidyl)-5-[4-[4-fluoro-4-[[4-[6-[5-(1-methylcyclopropoxy)-1H-indazol-3-yl]pyrimidin-4-yl]piperazin-1-yl]methyl]piperidine-1-carbonyl]-1-piperidyl]isoindoline-1,3-dione] | – | – | 50 to 70% | < 10 nM | < 10 nM | 50 to 70% | – | –
CC1(Oc2ccc3[nH]nc(-c4cc(N5CCN(CC6CCN(CC7CCN(c8ccc9c(c8)C(=O)N(C8CCC(=O)NC8=O)C9=O)CC7)CC6)CC5)ncn4)c3c2)CC1 (centres unmarked) [Compound 76, 2-(2,6-dioxo-3-piperidyl)-5-[4-[[4-[[4-[6-[5-(1-methylcyclopropoxy)-1H-indazol-3-yl]pyrimidin-4-yl]piperazin-1-yl]methyl]-1-piperidyl]methyl]-1-piperidyl]isoindoline-1,3-dione] | – | – | < 50% | < 10 nM | < 10 nM | 50 to 70% | – | –
CC1(Oc2ccc3[nH]nc(-c4cc(N5CCC(O[C@H]6C[C@H](OC7CCN(c8ccc9c(c8)C(=O)N(C8CCC(=O)NC8=O)C9=O)CC7)C6)CC5)ncn4)c3c2)CC1 (some centres unmarked) [Compound 126, 2-(2,6-dioxo-3-piperidyl)-5-[4-[3-[[1-[6-[5-(1-methylcyclopropoxy)-1H-indazol-3-yl]pyrimidin-4-yl]-4-piperidyl]oxy]cyclobutoxy]-1-piperidyl]isoindoline-1,3-dione] | – | – | < 50% | 10 to 50 nM | 10 to 50 nM | < 50% | – | –
CC1(Oc2ccc3[nH]nc(-c4cc(N5CCO[C@@H](CN6CCC(OC7CCN(c8ccc9c(c8)C(=O)N(C8CCC(=O)NC8=O)C9=O)CC7)CC6)C5)ncn4)c3c2)CC1 (stereo partly drawn) [Compound 149, 2-(2,6-dioxo-3-piperidyl)-5-[4-[[1-[[(2S)-4-[6-[5-(1-methylcyclopropoxy)-1H-indazol-3-yl]pyrimidin-4-yl]morpholin-2-yl]methyl]-4-piperidyl]oxy]-1-piperidyl]isoindoline-1,3-dione] | – | – | 50 to 70% | 10 to 50 nM | 10 to 50 nM | 50 to 70% | – | –
CC1(Oc2ccc3[nH]nc(-c4cc(N5CCC(CN6CC[C@@H](CN7CCN(c8ccc9c(c8)C(=O)N(C8CCC(=O)NC8=O)C9=O)CC7)C6)CC5)ncn4)c3c2)CC1 (stereo partly drawn) [Compound 115, 2-(2,6-dioxopiperidin-3-yl)-5-(4-{[(3R)-1-[(1-{6-[5-(1-methylcyclopropoxy)-1H-indazol-3-yl]pyrimidin-4-yl}piperidin-4-yl)methyl]pyrrolidin-3-yl]methyl}piperazin-1-yl)-2,3-dihydro-1H-isoindole-1,3-dione] | – | – | 50 to 70% | < 10 nM | < 10 nM | 50 to 70% | – | –
CC1(Oc2ccc3[nH]nc(-c4cc(N5CCC(O[C@@H]6CCN(CC7CCN(c8ccc9c(c8)C(=O)N(C8CCC(=O)NC8=O)C9=O)CC7)C6)CC5)ncn4)c3c2)CC1 (stereo partly drawn) [Compound 116, 2-(2,6-dioxo-3-piperidyl)-5-[4-[[(3R)-3-[[1-[6-[5-(1-methylcyclopropoxy)-1H-indazol-3-yl]pyrimidin-4-yl]-4-piperidyl]oxy]pyrrolidin-1-yl]methyl]-1-piperidyl]isoindoline-1,3-dione] | – | – | 50 to 70% | < 10 nM | < 10 nM | < 50% | – | –
